This is an account of results in patent EP4699605A1, “USE OF NOVEL COMPOUND FOR TREATING INTRACTABLE DISEASES” (YJ Cerapeutics Inc., priority 2023, dated 2024).

What all share (type): in vivo, Sprague-Dawley rats
The test system of one assay is TRPM7. The assay is described as follows: Signaling pathway analysis in SNI model (Western blot): TRPM7 expression. The following applies: 4 weeks after nerve injury. As for the experimental part: To determine through which signaling pathway YJ102 inhibited a neuroinflammatory response, there was analyzed increased expression and activation of histone demethylase JMJD3 and expression changes of factors associated with JAK/STAT3 pathway, mTOR pathway, and TRPM7-mediated pathway, which were known as important regulatory mechanisms and epigenetic regulators mediating the neuroinflammatory response, in the tissues of the SNI animal model 4 weeks after nerve injury.

The test system of assay [1] is neutrophils and macrophages. The assay is described as follows: Introduction of neutrophils and macrophages into the bladder after SCI (immunofluorescence). An excerpt: When bladder dysfunction occurred due to spinal cord injury, cystitis, etc., a decrease in tight junction protein in the urothelium in contact with urine occurred, which increased the permeability of the bladder wall to introduce the harmful substances into the tissue, and caused the death of the urothelium serving as a barrier, and an increase in inflammatory response in the bladder. In order to determine what effect the compound YJ102 of the present disclosure had on these pathological processes, the expression of tight junction proteins ZO-1 and occludin was confirmed by Western blot analysis and immunofluorescence staining, and the introduction of neutrophils and macrophages into the bladder was confirmed by immunofluorescence staining. Specifically, the cut bladder tissue sections were frozen in liquid nitrogen, ground in a mortar and pestle to be completely lysed, and homogenized by adding Lysis Buffer [50 mM Tris-HCl (pH 7.4), 150 mM NaCl, 2 mM MgCl2, 0.1% NP40]. The homogenized tissue sections were transferred to a microcentrifuge tube, rock at 4°C for 20 minutes, and then centrifuged at 25,000 × g for 10 minutes. The supernatant was transferred to a new microcentrifuge, the protein concentrations were measured using a BCA kit, and then samples for Western blot were prepared by adding a 1X sample buffer and boiling for 5 minutes. […]

Another assay concerns microglia. The assay is described as follows: Microglial activation in spinal cord of SNI model (OX-42 staining, p-p38MAPK Western blot). As for the experimental part:
To be used as a peripheral nerve injury animal model, a sciatic nerve injury (SNI) model was prepared (FIG. 1C). Specifically, 200 to 220 g of male adult Sprague-Dawley rats were anesthetized by intraperitoneal injection of chloral hydrate (500 mg/kg), and then three terminal branches (tibial, common peroneal, and sural nerves) of the right sciatic nerve were approached, and the tibia nerve and the peroneal nerve were tightly ligated with 4-0 silk, and neurectomy was performed at a distal 3 mm position of the ligation site. At this time, a Sham group was a group that exposed only the sciatic nerve without damage.
To analyze the activation of microglia in the spinal cord, which were known to play an important role in the induction/persistence of neuropathic pain, 4 weeks after nerve injury in the SNI animal model, the spinal cord of 4 and 5 lumbar vertebrae was stained with OX-42 to confirm changes in cell shape and intensity. […] The supernatant was transferred to a new microcentrifuge, the protein concentration was measured using a BCA kit, and samples for Western blot were prepared by adding a 1X sample buffer and boiling for 5 minutes. […]
A general note: In western blotting, separated proteins are transferred to a membrane and probed.

SMILES strings stand for the structures.

Turning to `CCc1ccc(N(C(=O)COC)c2nc3cc(Cl)ccc3o2)cc1` [YJ102], in the assay with TRPM7, the “expression of TRPM7” value is “inhibited”. In addition, the “introduction of MPO-positive neutrophils into the bladder” value in assay [1] (after spinal cord injury (day 1)) was “significantly inhibited”. In addition, the “introduction of ED-1-positive macrophages into the bladder” value in assay [1] (after spinal cord injury (day 7)) is given as “significantly inhibited”. Moreover, the “microglia activation changes (OX-42 intensity, activated morphology)” value with microglia (4 weeks after nerve injury, L4-L5 spinal cord, vs Vehicle) is “significantly reduced”. The “amount of p-p38MAPK” value in the assay on microglia (spinal cord, Western blot) was “significantly reduced”.
